This is an account of results in ChEMBL document CHEMBL1134886, “Synthesis of [(2S,3S,4R)-3,4-dihydroxypyrrolidin-2-yl]-5-methylfuran-4-carboxylic acid derivatives: new leads as selective beta-galactosidase inhibitors” (Bioorg Med Chem Lett, 2002).

Active and inactive are the calls of the source. The calls are words filed in the database; no cut-off is given here.

The test system of test [1] is Aspergillus niger. Description: Inhibitor concentration against Amyloglucosidases from Aspergillus niger was tested at a dose of 1 mM; NI means no inhibition.
Test [2] has as its system Rhizopus. Description: Compound was tested for Percent inhibition of Amyloglucosidases from Rhizopus mold; NI means no inhibition.
For test [3], the target named is Beta-galactosidase (Escherichia coli) (UniProt Q8VNN2). Description: Compound was tested for Percent inhibition of Beta-galactosidase from Escherichia coli at a dose of 1 mM.
Test [4] concerns the target T1, Beta-galactosidase (Aspergillus niger, UniProt P29853).
T1 sequence (P29853 whole entry): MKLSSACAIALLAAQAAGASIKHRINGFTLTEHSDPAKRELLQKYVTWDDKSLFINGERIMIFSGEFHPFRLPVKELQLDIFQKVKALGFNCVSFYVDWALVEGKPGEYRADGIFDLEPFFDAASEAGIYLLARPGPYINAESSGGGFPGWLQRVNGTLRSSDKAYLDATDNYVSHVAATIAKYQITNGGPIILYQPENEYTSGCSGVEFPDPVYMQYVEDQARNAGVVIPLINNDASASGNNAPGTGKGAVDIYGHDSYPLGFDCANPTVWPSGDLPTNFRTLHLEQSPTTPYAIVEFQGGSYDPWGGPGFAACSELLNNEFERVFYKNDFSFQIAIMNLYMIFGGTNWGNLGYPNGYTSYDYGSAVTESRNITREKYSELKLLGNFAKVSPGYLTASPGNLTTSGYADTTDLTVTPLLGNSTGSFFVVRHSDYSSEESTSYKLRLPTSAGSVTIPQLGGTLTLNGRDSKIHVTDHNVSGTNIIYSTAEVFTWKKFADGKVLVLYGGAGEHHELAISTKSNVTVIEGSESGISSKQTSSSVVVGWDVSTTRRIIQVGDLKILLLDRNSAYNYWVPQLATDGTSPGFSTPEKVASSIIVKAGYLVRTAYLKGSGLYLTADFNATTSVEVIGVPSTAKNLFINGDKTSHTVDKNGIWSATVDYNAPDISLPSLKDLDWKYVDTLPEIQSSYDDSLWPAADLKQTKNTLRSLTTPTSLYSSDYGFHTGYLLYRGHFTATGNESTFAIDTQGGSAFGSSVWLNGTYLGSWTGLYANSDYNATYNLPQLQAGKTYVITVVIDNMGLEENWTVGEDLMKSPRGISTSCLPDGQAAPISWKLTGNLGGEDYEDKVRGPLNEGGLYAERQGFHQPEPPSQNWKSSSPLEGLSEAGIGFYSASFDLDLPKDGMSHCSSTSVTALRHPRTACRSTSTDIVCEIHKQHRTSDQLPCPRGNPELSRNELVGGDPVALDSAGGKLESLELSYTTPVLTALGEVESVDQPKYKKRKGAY
Nature of the test: Inhibitor concentration against Beta-galactosidase from Aspergillus niger.

Test [5] addresses T2, Beta-galactosidase (Aspergillus niger) (UniProt P29853).
T2 sequence (whole entry): T1 sequence (P29853 whole entry)
Nature of the test: Compound was tested for Percent inhibition of Beta-galactosidase from Aspergillus niger at a dose of 1 mM.

The target in test [6] is T3, Beta-galactosidase (Bos taurus) (UniProt Q58D55).
T3 sequence (whole entry): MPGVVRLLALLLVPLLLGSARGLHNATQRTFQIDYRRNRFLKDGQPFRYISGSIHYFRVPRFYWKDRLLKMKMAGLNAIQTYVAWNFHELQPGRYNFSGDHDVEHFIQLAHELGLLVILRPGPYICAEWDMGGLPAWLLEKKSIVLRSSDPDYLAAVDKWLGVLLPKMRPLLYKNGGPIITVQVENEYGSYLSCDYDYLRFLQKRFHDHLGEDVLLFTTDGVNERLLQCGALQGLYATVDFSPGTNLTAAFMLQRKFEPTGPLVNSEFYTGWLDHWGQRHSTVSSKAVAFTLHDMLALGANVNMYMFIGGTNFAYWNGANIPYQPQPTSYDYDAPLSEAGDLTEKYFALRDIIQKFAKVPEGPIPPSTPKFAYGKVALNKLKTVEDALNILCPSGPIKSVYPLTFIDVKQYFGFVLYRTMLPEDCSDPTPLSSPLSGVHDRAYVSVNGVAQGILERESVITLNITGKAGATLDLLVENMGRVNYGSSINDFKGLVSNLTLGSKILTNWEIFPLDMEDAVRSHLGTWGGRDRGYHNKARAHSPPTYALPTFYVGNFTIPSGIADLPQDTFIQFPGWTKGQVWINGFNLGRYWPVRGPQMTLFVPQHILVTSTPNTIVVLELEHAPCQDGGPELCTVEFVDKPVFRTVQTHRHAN
Description: Compound was tested for Percent inhibition of Beta-galactosidase from Bovine liver at a dose of 1 mM.

Test [7] concerns the target T4, Beta-galactosidase (Bos taurus, UniProt Q58D55).
T4 sequence (Q58D55 whole entry): T3 sequence (whole entry)
Nature of the test: Inhibitor concentration against Beta-galactosidase from Bovine liver.

For test [8], the target named is T1, Beta-galactosidase. Nature of the test: Inhibition constant(Non competitive) of compound against Beta-galactosidase from Aspergillus niger.
The subject of test [9] is Canavalia ensiformis. Nature of the test: Compound was tested for Percent inhibition of alpha-Mannosidases from Jack beans at a dose of 1 mM.
The test system of test [10] is Prunus dulcis. Description: Inhibition of alpha-Mannosidases from Almonds was tested at a dose of 1 mM.
Test [11] addresses Alpha-galactosidase (Coffea arabica) (UniProt Q42656). Description: Compound showed Non competitive inhibition against Alpha-galactosidase from coffee bean; NI means no inhibition at a dose of 1 mM.
The target in test [12] is T5, Tissue alpha-L-fucosidase (Homo sapiens) (UniProt P04066).
T5 sequence (whole entry): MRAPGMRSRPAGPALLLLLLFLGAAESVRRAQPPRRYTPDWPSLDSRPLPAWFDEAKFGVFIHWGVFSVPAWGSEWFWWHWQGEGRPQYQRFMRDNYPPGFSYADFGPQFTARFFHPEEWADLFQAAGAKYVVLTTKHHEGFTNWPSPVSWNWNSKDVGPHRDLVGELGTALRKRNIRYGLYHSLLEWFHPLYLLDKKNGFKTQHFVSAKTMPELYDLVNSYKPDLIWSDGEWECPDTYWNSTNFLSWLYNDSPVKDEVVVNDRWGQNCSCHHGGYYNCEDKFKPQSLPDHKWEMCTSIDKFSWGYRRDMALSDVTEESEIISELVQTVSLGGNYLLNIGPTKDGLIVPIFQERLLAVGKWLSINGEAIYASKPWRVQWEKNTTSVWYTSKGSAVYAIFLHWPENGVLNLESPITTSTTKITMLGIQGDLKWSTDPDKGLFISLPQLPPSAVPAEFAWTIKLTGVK
Description: Compound was tested for Percent inhibition of alpha-L-Fucosidase from Human placenta at a dose of 1 mM.

For test [13], the target named is Beta-galactosidase (Escherichia coli) (UniProt Q8VNN2). Description: Inhibitor concentration against Beta-galactosidase from Escherichia coli was tested at a dose of 1 mM; NI means no inhibition.
For test [14], the system named is Prunus dulcis. Nature of the test: Inhibitor concentration against alpha-Mannosidases from Almonds was tested at a dose of 1 mM.
The test system of test [15] is Prunus dulcis. Nature of the test: Inhibitor concentration against alpha-Mannosidases from Almond was tested at a dose of 1 mM; NI means no inhibition.
The target in test [16] is alpha-galactosidase (Escherichia coli) (UniProt P06720). Nature of the test: Inhibitor concentration against alpha-Galactosidase from Escherichia coli was tested at a dose of 1 mM; NI means no inhibition.
The subject of test [17] is Rhizopus. Description: Inhibitor concentration against Amyloglucosidases from Rhizopus mold was tested at a dose of 1 mM; NI means no inhibition.
Test [18] concerns the target Beta-galactosidase (Escherichia coli) (UniProt Q8VNN2). Description: Inhibitor concentration against Beta-galactosidase from was Escherichia coli tested at a dose of 1 mM; NI means no inhibition.
Test [19] has as its target T1, Beta-galactosidase. Description: Inhibitor concentration against Beta-galactosidase from Aspergillus niger was tested at a dose of 1 mM.
Test [20] addresses T2, Beta-galactosidase (Aspergillus niger). Description: Compound was tested for Percent inhibition of Beta-galactosidase from Aspergillus niger. To be noted: concentration not given here.
The target is the same in test [21]. Nature of the test: Inhibitor concentration against Beta-galactosidase from Aspergillus niger was tested at a dose of 1 mM; NI means no inhibition.
Test [22] has as its system Prunus dulcis. Description: Inhibitor concentration against alpha-Mannosidases from Almond was tested at a dose of 1 mM.
For test [23], the target named is Alpha-galactosidase (Coffea arabica) (UniProt Q42656). Description: Compound was tested for Percent inhibition of Alpha-galactosidase from Coffee bean at a dose of 1 mM.
For test [24], the system named is Prunus dulcis. Nature of the test: Inhibition of alpha-Mannosidases from Almond was tested at a dose of 1 mM; NI means no inhibition.
Test [25] has as its target Alpha-galactosidase (Coffea arabica) (UniProt Q42656). Nature of the test: Inhibitor concentration against Alpha-galactosidase from Coffee beans was tested at a dose of 1 mM; NI means no inhibition.

Alpha-galactosidase (Coffea arabica), sequence (Q42656 whole entry, looked up): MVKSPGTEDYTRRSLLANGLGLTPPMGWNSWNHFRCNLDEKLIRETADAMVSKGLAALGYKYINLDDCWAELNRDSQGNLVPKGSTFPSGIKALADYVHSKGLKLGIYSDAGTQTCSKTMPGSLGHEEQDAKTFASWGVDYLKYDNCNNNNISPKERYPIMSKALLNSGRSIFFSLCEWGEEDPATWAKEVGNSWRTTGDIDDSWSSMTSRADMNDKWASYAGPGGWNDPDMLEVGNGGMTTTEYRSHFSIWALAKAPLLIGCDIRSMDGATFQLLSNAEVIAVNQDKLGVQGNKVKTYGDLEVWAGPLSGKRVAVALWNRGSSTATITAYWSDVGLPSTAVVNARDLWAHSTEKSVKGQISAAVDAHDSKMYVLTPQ
Beta-galactosidase (Escherichia coli), sequence (Q8VNN2 whole entry, looked up): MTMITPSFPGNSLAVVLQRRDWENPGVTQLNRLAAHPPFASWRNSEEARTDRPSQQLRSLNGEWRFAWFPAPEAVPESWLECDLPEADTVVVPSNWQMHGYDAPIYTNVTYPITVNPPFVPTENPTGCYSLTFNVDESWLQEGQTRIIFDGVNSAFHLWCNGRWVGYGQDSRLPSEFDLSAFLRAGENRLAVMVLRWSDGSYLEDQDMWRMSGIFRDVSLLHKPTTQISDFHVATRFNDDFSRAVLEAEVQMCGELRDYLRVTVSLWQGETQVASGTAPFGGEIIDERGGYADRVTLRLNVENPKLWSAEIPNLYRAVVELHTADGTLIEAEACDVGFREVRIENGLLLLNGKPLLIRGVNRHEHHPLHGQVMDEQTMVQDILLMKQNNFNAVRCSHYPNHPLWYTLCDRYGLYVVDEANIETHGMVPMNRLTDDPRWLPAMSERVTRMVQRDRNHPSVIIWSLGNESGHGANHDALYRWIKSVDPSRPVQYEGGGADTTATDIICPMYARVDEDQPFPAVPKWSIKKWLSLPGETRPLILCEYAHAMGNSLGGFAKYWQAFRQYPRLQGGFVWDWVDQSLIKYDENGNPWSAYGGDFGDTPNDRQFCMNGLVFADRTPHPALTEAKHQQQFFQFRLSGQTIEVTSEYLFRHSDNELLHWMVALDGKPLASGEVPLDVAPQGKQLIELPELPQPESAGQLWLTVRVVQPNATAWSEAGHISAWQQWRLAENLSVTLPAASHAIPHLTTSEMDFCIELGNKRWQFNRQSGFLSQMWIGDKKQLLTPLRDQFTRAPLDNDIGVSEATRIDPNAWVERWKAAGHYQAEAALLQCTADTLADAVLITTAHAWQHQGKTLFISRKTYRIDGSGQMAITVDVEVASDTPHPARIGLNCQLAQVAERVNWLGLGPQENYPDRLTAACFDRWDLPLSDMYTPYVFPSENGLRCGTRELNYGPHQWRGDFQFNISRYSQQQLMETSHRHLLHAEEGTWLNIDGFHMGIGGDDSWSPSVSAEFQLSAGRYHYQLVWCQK
alpha-galactosidase (Escherichia coli), sequence (P06720 whole entry, looked up): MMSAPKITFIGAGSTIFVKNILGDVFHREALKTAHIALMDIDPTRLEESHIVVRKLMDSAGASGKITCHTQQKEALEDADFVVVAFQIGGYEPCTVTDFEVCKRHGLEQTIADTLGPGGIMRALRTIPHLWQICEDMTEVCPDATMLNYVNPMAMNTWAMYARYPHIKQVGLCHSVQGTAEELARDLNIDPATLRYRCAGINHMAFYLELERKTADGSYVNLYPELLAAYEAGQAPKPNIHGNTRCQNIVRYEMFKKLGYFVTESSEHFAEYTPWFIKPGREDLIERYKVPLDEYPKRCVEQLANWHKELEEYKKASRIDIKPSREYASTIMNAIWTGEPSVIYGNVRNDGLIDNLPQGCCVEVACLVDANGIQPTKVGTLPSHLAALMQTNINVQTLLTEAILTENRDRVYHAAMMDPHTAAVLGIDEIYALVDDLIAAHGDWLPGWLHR

For `CCN(CC)C(=O)c1cc([C@H]2NC[C@@H](O)[C@H]2O)oc1C`, the inhibition result in test [1] and in test [2] was “inactive” throughout. The inhibition (in general, the drop in the measured response relative to a control, in per cent) in test [3] is 33%; in test [5] it was 96%; in test [6], 90%; in test [9], 37%; in test [10] it was 38%; in test [11] it was “No inhibition”. For the same molecule, the IC50 (usually the concentration needed to halve the response being measured) came out at 28 µM in test [4] and 42 µM in test [7]. Affinity in [8] was put at a Ki of 30 µM.

As to `CCN(CC)C(=O)c1cc([C@@H]2NC[C@@H](O)[C@H]2O)oc1C`, the inhibition in test [12] is 91%; in test [6], 58%; in test [9], 27%; in test [14], 31%. Further, the inhibition result in test [1] and in test [13] was “inactive” each time.

In the case of `CCOC(=O)c1cc([C@@H]2NC[C@@H](O)[C@H]2O)oc1C`, the inhibition was determined as 76% in [12], 80% in [5], 57% in test [6] and 38% in [9]. Besides, the inhibition entry in test [1], in [15] and in test [16] was “inactive” in each case.

For `Cc1oc([C@H]2NC[C@@H](O)[C@H]2O)cc1C(=O)NC(C)C`, the inhibition was determined as 39% in test [12], 79% in [20] and 49% in test [6]. For the same molecule, the inhibition entry in [1], in test [17] and in test [18] was “inactive” each time. Besides, the IC50 in test [19] amounted to 250 µM; in test [7], 1000 µM.

In the case of `Cc1oc([C@@H]2NC[C@@H](O)[C@H]2O)cc1C(=O)NC(C)C`, the inhibition in [1] came out at 23%; in [6] it was 38%; in test [22], 9%; in [23], 29%. The inhibition result in [13] and in [21] was “inactive” in each case.

Regarding `CCOC(=O)c1cc([C@H]2NC[C@@H](O)[C@H]2O)oc1C`, the inhibition entry in test [1] and in test [2] was “inactive” each time. The inhibition is 83% in test [3]; 99% in test [5]; 78% in test [6]; 49% in test [9]; 37% in test [24]. For the same molecule, in test [25], the inhibition constant Ki (usually the equilibrium dissociation constant of an inhibitor or competing ligand from its target) is listed as “Not Active”.
